Results from patent publication US7943795B2, “Vitamin D receptor modulators” (Eli Lilly and Company, priority 2004, dated 2011).

Columns and labels:
[1] = system: KERtr cells (Human skin keratinocyte); test: Keratinocyte proliferation assay; format: cell-based; settings: 72 hr, BrdU incorporation, read-out: Keranocyte Proliferation IC50
Experimental: 6. The keratinocyte proliferation assay is described in the “Assay” section of the Description, infra.
The Keratinocyte Proliferation Assay
This Assay is indicative for the treatment of psoriasis. An acceptable test result is IC50 value of less than or equal to 300 nM. Preferred assay results are IC50 values of less than 100 nM.
KERtr cells (Human skin keratinocyte are transformed with a retrovirus vector, obtained from ATCC, then are plated in 96-well flat-bottomed plates (3000 cells/well) in 100 μl keratinocyte serum free medium supplemented with bovine pituitary extract in the absence of EGF (Life Technologies, Rockville, Md.) and are incubated at 37° C. for two days. The cells are treated with various concentrations of VDR ligands (ten-fold serial dilution from 10,000 nM to 0.1 nM in triplicate), dissolved in 100 μl keratinocyte serum free medium supplemented with bovine pituitary extract in the absence of EGF and are incubated at 37° C. for 72 hr. BrdU (5-bromo-2′-deoxyuridine) incorporation is analyzed as a measure of DNA replication (Cell proliferation ELISA kit, Roche Diagnostics, Indianapolis, Ind.) and absorbance is measured at […]. Potency values (IC50) values were determined as the concentration (nM) of compound that elicited a half-maximal response.

[2] = system: IL-10 production in PBMCs; test: IL-10 induction assay; format: cell-based; settings: PBMC; TPA/PHA stimulated human PBMCs, IL-10 in supernatant by immunoassay
Excerpt: 7. The IL-10 induction assay is described in the “Assay” section of the Description, infra.
The IL-10 Induction Assay
This is an in vitro efficacy assay for psoriasis, abscess and adhesion. Psoriasis involves both keratinocytes and immune cells. IL-10 is a unique cytokine because it is anti-inflammatory and immunosuppressive. This assay tells us whether a VDRM is able to function as an agonist in PBMCs (primary blood mononuclear cells) or not. A lower EC50 value is desirable in this assay since a compound with a lower EC50 value will be a better agonist in PBMCs. An acceptable test result is an EC50 value of less than 200 nM. Preferred assay results are EC50 values of less than 100 nM.
Isolation of Peripheral Blood Mononuclear Cells (PBMCs):
Collect 50 ml of human blood and dilute with media, RPMI-1640. Add diluted blood to sterile tubes with ficol. Centrifuge the tubes. Discard the top layer and collect the cells from middle layer. Divide all cells into four tubes and add media. Centrifuge. Aspirate off media and resuspend the cells. Collect all cells. Centrifuge at 1200 rpm for 10 m. Resuspend the cells in RPMI-1640 with 2% FBS and then count cells.
Stimulation of PBMC: Prepare TPA in DMSO. Dissolve PHA in water. Plate TPA/PHA treated PBMCs in well plates. Incubate the cells.
Treatment: Prepare all compound dilutions in plain RPMI-1640 media. Add diluted compound and incubate. Sample Collection and assay: Remove all the cells by centrifugation and assay the supernatant for IL-10 by immunoassay using anti-human IL-10 antibody coated beads, as described by the manufacturer (Linco Research Inc., St. Charles, Mo.).

How did the IC50 [1] turn out when `CCC(CC)(c1ccc(OCC(O)C(C)(C)C)c(C)c1)c1ccc2cc(C(=O)O)ccc2c1` (racemic) [Ex. 2, 6-{1-Ethyl-1-[4-(2-hydroxy-3,3-dimethyl-butoxy)-3-methyl-phenyl]-propyl}-naphthalene-2-carboxylic acid] was run?
Its IC50 is 0.047 µM.

What about the IC50 [2] of the same molecule?
The IC50 was 0.049 µM.
